Experimental data published in patent publication US8796452B2, “Preparation of lamivudine form I” (Merck Sharp & Dohme Corp., priority 2010, dated 2014).

How the values were obtained:
[1] = EtOH-water mixtures at 25° C.; cited from earlier work
[2] = milling, or storage at up to 45° C. at a relative humidity of 25% to 85%; Form I made by the process of WO 2009/069013; cited from earlier work
[3] = Equilibration of physical mixtures of Forms I, II and III in water-2-butanone solvent systems (most thermodynamically stable crystal form); assay type: physicochemical; details: for water content of water-2-butanone mixtures in which Form I is thermodynamically stable: slurry equilibrated by aging
Experimental: Each admixture was then equilibrated by aging at its temperature until the relative amounts of each crystalline form remained constant. At the completion of equilibration, each admixture contained a slurry of a single crystal form, or a slurry in which one crystal form dominates. This crystal form is the most thermodynamically stable at the admixture conditions of temperature and water concentration. Form. […] Similarly, Form I was determined to be thermodynamically stable in water-2-butanone mixtures at about 25° C. when the mixtures contained from 3.5 to 6.0 wt. % water, and at about 50° C. when the mixtures contained from 5.0 to 8.5 wt. % water. Additional data was collected for the boundary between form I and form III; i.e., at 20° C. […] The data are shown in a phase map of temperature versus wt. % water in FIG. 1.

Nc1ccn([C@@H]2CS[C@H](CO)O2)c(=O)n1 [Form I]
water that must be present in EtOH to convert the excess solid to Form I at equilibrium [1]: 18-20% | conversion of Form I to Form II [2]: will not convert to Form II | water content in 2-butanone at which Form I is more stable than Form III (Form I/Form III boundary) ([3]; 20° C.): less than 5.7 wt % water | water content in 2-butanone at which Form I is more stable than Form III (Form I/Form III boundary) ([3]; 30° C.): less than 6.6 wt % water | water content of water-2-butanone mixtures in which Form I is thermodynamically stable ([3]; about 0° C.): 2.5 to 5.0 wt. % water | water content of water-2-butanone mixtures in which Form I is thermodynamically stable ([3]; about 25° C.): 3.5 to 6.0 wt. % water | water content of water-2-butanone mixtures in which Form I is thermodynamically stable ([3]; about 50° C.): 5.0 to 8.5 wt. % water
